Measured values reported in patent US20260325473A1, “N-Beta-Hydroxybutyryl-Amino Acids and Related Compositions and Methods” (The Board of Trustees of the Leland Stanford Junior …, priority 2023, published 2026).

Key:
[1] = system: primary cardiomyocytes; assay: Keto amino acid production in BHB-treated cardiomyocytes; assay type: cell-based, human; conditions: BHB 25 mM, overnight
Description: Human induced pluripotent stem cells (iPSCs) culture and cardiac differentiation into cardiomyocytes (CMs). Human iPSCs from healthy donors were provided by Stanford Cardiovascular Institute Biobank and cultured in the E8 medium. When iPSCs were grown to 95% confluence, the E8 medium was replaced with RPMI 1640 (GIBCO) supplemented with B27 minus insulin (GIBCO) and 5 µM CHIR-99021 (Selleck Chemicals) to start cardiac differentiation at day 0. On day 2, the medium was replaced with RPMI-B27 minus insulin. On day 3, the medium was changed to RPMI-B27 minus insulin containing 5 μM IWR-1 (Selleck Chemicals) and was maintained for 48 hours. On day 5, the medium was changed back to RPMI-B27 minus insulin and was maintained for 48 hours. Then, the cells were incubated with complete CM medium consisting of RPMI 1640 medium and B27 supplement plus insulin (GIBCO). On day 12, the medium was replaced with RPMI-B27 without D-glucose (GIBCO) for metabolic purification of CMs for 4 days. Then, the medium was changed to the complete CM medium and replaced every 2 days. Human iPSC-CMs were dissociated by TrypLE Express (GIBCO) and re-plated on Matrigel-coated 12-well plate for further experiments. Cultures were maintained at 37° C. in a humidified incubator with 5% (v/v) CO^2.
Cellular enzyme activity assays. Cells were plated in 12-well plates at 70-80% confluence. […]

[2] = system: DIO mice; assay: Chronic administration in DIO mice: body weight and food intake; assay type: in vivo, mouse; conditions: for body weight, head-to-head keto amino acids: 5 days, vs vehicle
Description: General animal information. Animal experiments were performed according to procedure approved by the Stanford University Administrative Panel on Laboratory Animal Care (APLAC). Mice were maintained in 12-hr light-dark cycles at 22° C. and ~50% relative humidity and fed a standard irradiated rodent chow diet. Where indicated, high-fat diet (D12492, Research Diets 60% kcal from fat) and ketogenic diet (D06040601, Research Diets, 80% kcal fat/15% kcal protein/5% kcal carbohydrate) was used. Male C57BL/6J (stock no. 000664) and male C57BL/6J DIO mice (stock no. 380050) were purchased from Jackson Laboratory. Male C57BL/6NCrl (stock no. 027) mice were purchased from Charles River Laboratory. Whole body CNDP2-KO mice (catalog number, C57BL/6NCrl-Cndp2em1 (IMPC) Mbp/Mmucd, RRID: MMRRC_043492-UCD) were obtained from the Mutant Mouse Regional Resource Center, a NCRR-NIH funded strain repository. For in vivo injection of mice with metabolites, compounds were dissolved in 18:1:1 (by volume) of saline/Kolliphor EL (Sigma Aldrich)/DMSO. Compounds were administered to mice daily via intraperitoneal injections at 5 μl/g body weight at the indicated doses. For all injection experiments, mice were mock injected with the vehicle for 3-5 days until body weights have stabilized. Sample sizes were determined on the basis of previous experiments using similar methodologies. For metabolite administration experiments, mice were randomly assigned to treatment groups. Experimenters were not blinded to groups.

Row | Compound | keto amino acid production by cardiomyocytes [1] | food intake and body weight, related metabolites and dipeptides ([2]; 50 mg/kg IP, 9 days) | body weight and food intake, conjugate vs components ([2]; 50 mg/kg/day IP, BHB or phenylalanine at the same doses, 9 days) | body weight gain, 2-week study ([2]; 50 mg/kg/day IP, 2 weeks) | daily food intake, 2-week study ([2]; 50 mg/kg/day IP, 2 weeks) | body weight gain ([2]; 50 mg/kg/day IP, 10-day period) | suppression of daily food intake, average ([2]; 50 mg/kg/day IP, 10-day period) [%] | body weight, head-to-head keto amino acids ([2]; 50 mg/kg/day IP) | weight loss compared with pair-fed controls ([2]; 50 mg/kg/day IP, 6 days)
1 | CC(O)CC(=O)N[C@@H](Cc1ccccc1)C(=O)O (stereo partly shown) [BHB-Phe, N-betahydroxybutyryl-phenylalanine] | minor amount | suppressed food intake and body weight | efficiently suppressed body weight and food intake | concomitant reduction in body weight gain | durable suppression of daily food intake | concomitant reduction in body weight gain | −30 | effective in suppressing body weight | lost the same amount of weight as pair-fed controls
2 | CC(O)CC(=O)N[C@H](C(=O)O)C(C)C (stereo partly shown) [BHB-Val, N-betahydroxybutyryl-valine] | – | – | – | – | – | – | – | effective in suppressing body weight | –
